Data on 2 compounds can be found in patent US8372831B2, “Isoxazoline linked pyrrolo[2,1-c][1,4]benzodiazepine hybrids as potential anticancer agents and the process for preparation thereof” (Council of Scientific & Industrial Research, priority 2008, dated 2013).

What all share (format): cell-based, human
For experiment [1], the system named is K-562. Kind of experiment: NCI SRB cytotoxicity, K-562 (leukemia). The protocol:
(§1) Biological Activity: The in vitro biological activity studies were carried out at the National Cancer Institute, Maryland, USA.
(§2) The C8-linked isoxazoline-PBD hybrids have been tested against sixty human tumour cell lines derived from nine cancer types (leukemia, non-small cell lung cancer, colon cancer, CNS cancer, melanoma, ovarian cancer, renal cancer, prostate cancer and breast cancer) as per NCI protocol. For each compound, dose response curves for individual cell lines have been measured at a minimum of five concentrations at 10 fold dilutions. A protocol of 48 hrs continuous drug exposure has been used, and a sulforhodamine B (SRB) protein assay was used to estimate cell viability or growth. The concentration for 50% cell growth inhibition (GI50), total cell growth inhibition (TGI, 0% growth) and 50% cell death (LC50, […]) compared with the control has been calculated (FIG. 2).
(§3) Compound 5b and 9b have been evaluated for in vitro cytotoxicity in sixty cell lines from nine human cancer types of lung (Hop-62, NCI-H226, NCI-H522), leukemia (K-562, SR), colon (HCT-116, HCT-15, HCC-2998), CNS(SF-539), melanoma (SK-MEL-5, UACC-62, M14), ovarian (IGROV1), renal (A498), prostate (PC3) breast (BT-549, MDA-MB-435, HS578T) origin. The results are expressed as percent of cell growth determined relative to that of untreated control cells (Table 1).

For experiment [2], the system named is SF-268. Nature of the experiment: NCI SRB cytotoxicity, SF-268 (CNS). The following applies: 48 hrs exposure. The protocol:
as §1, §2, §3

The test system of experiment [3] is A498. Kind of experiment: NCI SRB cytotoxicity, A498 (renal). The following applies: 48 hrs exposure. The protocol:
as §1, §2, §3

The mark [4] stands for this setting: K-562, Leukemia, 48 hrs exposure.

As usually defined, the GI50 is the concentration at which growth is held to half of that of the control. `COc1cc(C2=NOC(c3cc(OC)c(OC)c(OC)c3)C2)ccc1OCCCCOc1cc2c(cc1OC)C(=O)N1CCC[C@H]1C=N2` (stereo partly drawn) [Compound 5b, (11aS)-7-(methyloxy)-8-(4-[(2-(methyloxy)-4-5-[3,4,5-tri(methyloxy)phenyl]-4,5-dihydro-3-isoxazolylphenyl)oxy]butyloxy)-2,3,5,11a-tetrahydro-1H benzo[e]pyrrolo[1,2-a][1,4]diazepin-5-one]: the GI50 was determined as 120 nM in experiment [1] (setting [4]), 120 nM in experiment [1] (leukemia K-562) and 340 nM in experiment [2].
For `COc1ccc(C2CC(c3ccc(OC)c(OC)c3OC)=NO2)cc1OCCCCOc1cc2c(cc1OC)C(=O)N1CCC[C@H]1C=N2` (stereo partly drawn) [Compound 9b, (11aS)-7-(methyloxy)-8-(4-[(2-(methyloxy)-5-3-[2,3,4-tri(methyloxy)phenyl]-4,5-dihydro-5-isoxazolylphenyl)oxy]butyloxy)-2,3,5,11a-tetrahydro-1H-benzo[e]pyrrolo[1,2-a][1,4]diazepin-5-one], the values for the GI50 in experiment [3], in experiment [1] (setting [4]) and in experiment [2] were 1720 nM, 1260 nM and 1890 nM, respectively.
